Values joined by “and” are separate entries in the source; they are usually repeats but may differ in a detail not shown here. Equal values may be shown once. Toxic doses and inconclusive results are not listed.
Test system: BDF1 mice, P388 leukemia ip, median survival T/C
Assay: NCI In Vivo Anticancer Drug Screen. Data for tumor model P388 Leukemia (intraperitoneal) in B6D2F1 (BDF1) mice
Conditions: endpoint: median survival time, higher = longer survival
Method: The antitumor activity of compounds was measured in mice bearing transplantable tumors. Survival or tumor size were measured and the results are expressed as the measurement made in the treated group (T) divided by the measurement made in the vehicle treated control group (C). The tumor model used in this assay is P388 Leukemia (intraperitoneal) in B6D2F1 (BDF1) mice

[1] = dose: 25.0 mg/kg/injection, schedule: Q01DX009 (ip), vehicle: saline with Tween-80
[2] = dose: 50.0 mg/kg/injection, schedule: Q01DX009 (ip), vehicle: saline with Tween-80
[3] = dose: 100.0 mg/kg/injection, schedule: Q01DX009 (ip), vehicle: saline with Tween-80
[4] = dose: 6.25 mg/kg/injection, schedule: Q01DX009 (ip), vehicle: saline
[5] = dose: 12.5 mg/kg/injection, schedule: Q01DX009 (ip), vehicle: saline
[6] = dose: 12.5 mg/kg/injection, schedule: Q04DX003 (ip), vehicle: saline
[7] = dose: 25.0 mg/kg/injection, schedule: Q04DX003 (ip), vehicle: saline
[8] = dose: 50.0 mg/kg/injection, schedule: Q04DX003 (ip), vehicle: saline
[9] = dose: 200.0 mg/kg/injection, schedule: Q01DX009 (ip), vehicle: saline with Tween-80

In the case of `[O-][n+]1c(CCl)nc2cccc3c2c1-c1ccccc1-3`, the T/C (dose: 12.5 mg/kg/injection, schedule: Q01DX009 (ip), vehicle: saline with Tween-80) is reported as 106 % of control, the T/C [1] is reported as 111 % of control and 121 % of control (2×) and the T/C [2] is reported as 121 % of control. The T/C [3] was 93 % of control.
`N#Cc1cccc(/C=C/C=C\c2ccc([N+](=O)[O-])cc2)c1` was tested, and the T/C (dose: 100.0 mg/kg/injection, schedule: Q01DX001 (ip), vehicle: Klucel (hydroxypropylcellulose) (HPC)) was 95 % of control, the T/C (dose: 200.0 mg/kg/injection, schedule: Q01DX001 (ip), vehicle: Klucel (hydroxypropylcellulose) (HPC)) was 90 % of control and the T/C (dose: 400.0 mg/kg/injection, schedule: Q01DX001 (ip), vehicle: Klucel (hydroxypropylcellulose) (HPC)) was 90 % of control.
`O=NN(CCCl)C(=O)N[C@H]1CCCC[C@@H]1Cl` was tested, and the T/C (dose: 33.0 mg/kg/injection, schedule: Q04DX003 (ip), vehicle: saline with Tween-80) was 272 % of control, the T/C (dose: 50.0 mg/kg/injection, schedule: Q04DX003 (ip), vehicle: saline with Tween-80) was 272 % of control and the T/C (dose: 75.0 mg/kg/injection, schedule: Q04DX003 (ip), vehicle: saline with Tween-80) was 213 % of control.
`c1ccc(C([CH2][Hg][CH2]C(c2ccccc2)c2ccccc2)c2ccccc2)cc1` was tested, and the T/C (dose: 100.0 mg/kg/injection, schedule: Q01DX009 (ip), vehicle: other) was 100 % of control, the T/C (dose: 100.0 mg/kg/injection, schedule: Q04DX003 (ip), vehicle: Klucel (hydroxypropylcellulose) (HPC)) was 100 % of control and the T/C (dose: 200.0 mg/kg/injection, schedule: Q01DX009 (ip), vehicle: other) was 104 % of control. For the same molecule, the T/C (dose: 200.0 mg/kg/injection, schedule: Q04DX003 (ip), vehicle: Klucel (hydroxypropylcellulose) (HPC)) was 116 % of control, the T/C (dose: 400.0 mg/kg/injection, schedule: Q01DX009 (ip), vehicle: other) was 114 % of control and the T/C (dose: 400.0 mg/kg/injection, schedule: Q04DX003 (ip), vehicle: Klucel (hydroxypropylcellulose) (HPC)) was 100 % of control.
In the case of `CCOC(=O)C(Br)C(=O)OCC`, the T/C [4] is reported as 100 % of control, the T/C [5] is reported as 100 % of control and the T/C [6] is reported as 110 % of control. For the same molecule, the T/C (dose: 25.0 mg/kg/injection, schedule: Q01DX009 (ip), vehicle: saline) was 95 % of control, the T/C [7] was 110 % of control and the T/C (dose: 50.0 mg/kg/injection, schedule: Q01DX009 (ip), vehicle: saline) was 86 % of control. The T/C [8] was 105 % of control.
For `CN(C(=O)c1ccccc1)N(C)C(=O)c1ccccc1`, the T/C (dose: 12.5 mg/kg/injection, schedule: Q04DX003 (ip), vehicle: Klucel (hydroxypropylcellulose) (HPC)) was 90 % of control, the T/C (dose: 25.0 mg/kg/injection, schedule: Q04DX003 (ip), vehicle: Klucel (hydroxypropylcellulose) (HPC)) was 109 % of control and the T/C (dose: 50.0 mg/kg/injection, schedule: Q04DX003 (ip), vehicle: Klucel (hydroxypropylcellulose) (HPC)) was 100 % of control.
For `CSCc1cccc(CO)c1`, the T/C [3] was 110 % of control, the T/C [9] was 100 % of control and the T/C (dose: 400.0 mg/kg/injection, schedule: Q01DX009 (ip), vehicle: saline with Tween-80) was 105 % of control.
In the case of `O=C1CC(c2ccccc2)=NO1`, the T/C [1] is reported as 96 % of control, the T/C [2] is reported as 91 % of control and the T/C [3] is reported as 101 % of control. For the same molecule, the T/C [9] was 107 % of control.
For `CC1=C(Br)C(=O)C(c2c(C)cc(C)cc2C)=C(Br)C1=O`, the T/C [4] was 86 % of control, the T/C [5] was 93 % of control and the T/C [6] was 104 % of control. The T/C [7] was 95 % of control, the T/C [8] was 105 % of control and the T/C (dose: 100.0 mg/kg/injection, schedule: Q04DX003 (ip), vehicle: saline) was 97 % of control. For the same molecule, the T/C (dose: 200.0 mg/kg/injection, schedule: Q04DX003 (ip), vehicle: saline) was 95 % of control.
In the case of `OCC1OC(n2cnc3c(=S)nc[nH]c32)C(O)C1O` (centres undefined), the T/C (dose: 20.0 mg/kg/injection, schedule: Q01DX010 (ip), vehicle: saline) is reported as 90 % of control, the T/C (dose: 40.0 mg/kg/injection, schedule: Q01DX010 (ip), vehicle: saline) is reported as 100 % of control and the T/C (dose: 80.0 mg/kg/injection, schedule: Q01DX010 (ip), vehicle: saline) is reported as 100 % of control. For the same molecule, the T/C (dose: 160.0 mg/kg/injection, schedule: Q01DX010 (ip), vehicle: saline) was 95 % of control.
